We go through 31 compounds from patent US20250179061A1 (SIRONAX LTD., priority 2022, published 2025).

SMILES strings stand for the structures. Where two headings read alike, the source gives them in different places.

This test has as its system HT-29 cells. The test is described as follows: HT-29 necroptosis cell viability assay (TNF-α/SMAC mimetic/zVAD-FMK, CellTiter-Glo). It is filed as cell-based. Conditions: Homo sapiens. Summed up:
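HT-29 cells (~5,000/well, overnight) in FBS-free McCoy's 5A with TNF-α 10 ng/ml, SMAC mimetic 6 μM and zVAD-FMK 10 μM plus 10-point 1:3 compound titration, 20 h at 37°C. ATP measured by CellTiter-Glo luminescence; IC50 as geometric mean of duplicates.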
On the technique in general: ATP-based viability assays read luminescence as a measure of living cells.

The mark [1] stands for this setting: HT-29, HT-29 necroptosis cell viability assay, class symbols for IC50, read-out: Activity.
The mark [2] stands for this setting: HT-29, HT-29 necroptosis cell viability, IC50 class symbols, read-out: Activity.
The mark [3] stands for this setting: HT-29 cells stimulated with TNF-α (10 ng/ml), SMAC mimetic (6 μM) and zVAD-FMK (10 μM), 20 hours, CellTiter-Glo ATP luminescence, geometric mean IC50 from 10 points, read-out: Activity.
[4] abbreviates: HT-29, HT-29 cells, necroptosis induced by TNF-α/SMAC mimetic/zVAD-FMK, CellTiter-Glo, read-out: Activity (IC50 class).

With `O=c1n(Cc2c(F)cccc2F)cnn1-c1ccc(Oc2ncsc2C(F)F)c(F)c1` [Example 152, 4-(2,6-difluorobenzyl)-2-(4-((5-(difluoromethyl)thiazol-4-yl)oxy)-3-fluorophenyl)-2,4-dihydro-3H-1,2,4-triazol-3-one], under setting [1], the IC50 was less than 100 nM.

For the compound `O=c1n(Cc2c(F)cccc2F)cnn1-c1ccc(Oc2ccnc(NCC3COC3)c2)cc1` [Example 341, 4-(2,6-difluorobenzyl)-2-(4-((2-((oxetan-3-ylmethyl)amino)pyridin-4-yl)oxy)phenyl)-2,4-dihydro-3H-1,2,4-triazol-3-one], under setting [2], the IC50 lay within 1000 to 10000 nM.

In the case of `O=c1n(Cc2c(F)cccc2F)cnn1-c1ccc(Oc2c(N3CC4(CCOCC4)C3)ccnc2Cl)cc1` [Example 307, 2-(4-((2-chloro-4-(7-oxa-2-azaspiro[3.5]nonan-2-yl)pyridin-3-yl)oxy)phenyl)-4-(2,6-difluorobenzyl)-2,4-dihydro-3H-1,2,4-triazol-3-one], under setting [2], the IC50 lay in the range of 100 to 1000 nM.

Consider `Cc1nc(C(=O)N2CC(NC(=O)OC(C)(C)C)C2)sc1Oc1ccc(-n2ncn(Cc3ccccc3F)c2=O)cc1F` [Example 598, tert-butyl (1-(5-(2-fluoro-4-(4-(2-fluorobenzyl)-5-oxo-4,5-dihydro-1H-1,2,4-triazol-1-yl)phenoxy)-4-methylthiazole-2-carbonyl)azetidin-3-yl)carbamate], for which the IC50 under setting [1] was less than 100 nM.

As to `CC1(OC(F)(F)F)CN(c2cc(Oc3ccc(-n4ncn(Cc5c(F)cccc5F)c4=O)cc3F)c(F)cn2)C1` [Example 505, 4-(2,6-difluorobenzyl)-2-(3-fluoro-4-((5-fluoro-2-(3-methyl-3-(trifluoromethoxy)azetidin-1-yl)pyridin-4-yl)oxy)phenyl)-2,4-dihydro-3H-1,2,4-triazol-3-one], the IC50 under setting [1] was less than 100 nM.

Regarding `COC(=O)c1nc(C)c(Oc2ccc(-n3ncn(Cc4ncccc4F)c3=O)cc2F)s1` [Example 32], the IC50 under setting [3] lay within 100 to 1000 nM.

`O=c1n(Cc2c(F)cccc2F)cnn1-c1ccc(Oc2ccnc(Cl)c2)cc1` [Example 662, 2-(4-((2-chloropyridin-4-yl)oxy)phenyl)-4-(2,6-difluorobenzyl)-2,4-dihydro-3H-1,2,4-triazol-3-one]: the IC50 under setting [4] lay within 100 to 1000 nM.

Consider `CN(C)c1ccccc1Oc1ccc(-n2nc(Cl)n(Cc3ccccc3)c2=O)cc1` [Example 677, 4-benzyl-5-chloro-2-(4-(2-(dimethylamino)phenoxy)phenyl)-2,4-dihydro-3H-1,2,4-triazol-3-one], for which, under setting [4], the IC50 was 100 to 1000 nM.

`Cc1ncsc1Oc1ccc(-n2ncn(Cc3cc(F)ccc3F)c2=O)cc1F` [Example 563, 4-(2,5-difluorobenzyl)-2-(3-fluoro-4-((4-methylthiazol-5-yl)oxy)phenyl)-2,4-dihydro-3H-1,2,4-triazol-3-one]: the IC50 under setting [1] is less than 100 nM.

Regarding `CCNc1cc(Oc2ccc(-n3ncn(Cc4c(F)cccc4F)c3=O)cc2)ccn1` [Example 346, 4-(2,6-difluorobenzyl)-2-(4-((2-(ethylamino)pyridin-4-yl)oxy)phenyl)-2,4-dihydro-3H-1,2,4-triazol-3-one], the IC50 under setting [2] was in the range of 100 to 1000 nM.

Turning to `Cc1nc(C#N)sc1Oc1ncc(-n2ncn(Cc3c(F)cccc3F)c2=O)cc1Cl` [Example 653, 5-[[3-chloro-5-[4-[(2,6-difluorophenyl)methyl]-5-oxo-1,2,4-triazol-1-yl]-2-pyridyl]oxy]-4-methyl-thiazole-2-carbonitrile], under setting [4], the IC50 is 100 to 1000 nM.

For the compound `COC(=O)c1nc(C)c(Oc2ccc(-n3ncn(Cc4ncccc4C#N)c3=O)cc2F)s1` [Example 33, methyl 5-(4-(4-((3-cyanopyridin-2-yl)methyl)-5-oxo-4,5-dihydro-1H-1,2,4-triazol-1-yl)-2-fluorophenoxy)-4-methylthiazole-2-carboxylate], the IC50 under setting [3] lay within 100 to 1000 nM.

In the case of `Cc1ncsc1Oc1ccc(-n2ncn(Cc3ccccc3F)c2=O)cc1F` [Example 8, 2-(3-fluoro-4-((4-methylthiazol-5-yl)oxy)phenyl)-4-(2-fluorobenzyl)-2,4-dihydro-3H-1,2,4-triazol-3-one], the IC50 under setting [3] is less than 100 nM.

For the compound `O=c1n(Cc2c(F)cccc2F)cnn1-c1ccc(Oc2cncc(N3CC4(CCOCC4)C3)c2)cc1` [Example 285, 2-(4-((5-(7-oxa-2-azaspiro[3.5]nonan-2-yl)pyridin-3-yl)oxy)phenyl)-4-(2,6-difluorobenzyl)-2,4-dihydro-3H-1,2,4-triazol-3-one], the IC50 under setting [2] was less than 100 nM.

With `Cc1nc(C(N)=O)sc1Oc1ccc(-n2nc3n(c2=O)C(c2ccccc2)CC3)cc1F` (stereo not shown) [Example 13, 5-(2-fluoro-4-(3-oxo-5-phenyl-6,7-dihydro-3H-pyrrolo[2,1-c][1,2,4]triazol-2(5H)-yl)phenoxy)-4-methylthiazole-2-carboxamide], under setting [3], the IC50 was less than 100 nM.

In the case of `Cc1nc(N2CC3(CCOCC3)C2)sc1Oc1ccc(-n2ncn(Cc3c(F)cccc3F)c2=O)cc1` [Example 75, 4-(2,6-difluorobenzyl)-2-(4-((4-methyl-2-(7-oxa-2-azaspiro[3.5]nonan-2-yl)thiazol-5-yl)oxy)phenyl)-2,4-dihydro-3H-1,2,4-triazol-3-one], under setting [3], the IC50 was less than 100 nM.

Turning to `CC(=O)Nc1cc(Oc2ccc(-n3ncn(Cc4c(F)cccc4F)c3=O)cc2)ccn1` [Example 521, N-[4-[4-[4-[(2,6-difluorophenyl)methyl]-5-oxo-1,2,4-triazol-1-yl]phenoxy]-2-pyridyl]acetamide], the IC50 under setting [1] fell in the range of 100 to 1000 nM.

In the case of `Cc1nc(C(N)=O)sc1Oc1ccc(-n2nc3n(c2=O)[C@@H](c2ccccc2)CC3)cc1F` (single isomer, unassigned) [Example 15], the IC50 under setting [3] was in the range of 100 to 1000 nM.

Consider `Cc1nc(N2C[C@H](O)[C@@H]2C)sc1Cc1ccc(-n2ncn(Cc3c(F)cccc3F)c2=O)cc1` [Example 64, 4-(2,6-difluorobenzyl)-2-(4-((2-((2S,3S)-3-hydroxy-2-methylazetidin-1-yl)-4-methylthiazol-5-yl)methyl)phenyl)-2,4-dihydro-3H-1,2,4-triazol-3-one], for which the IC50 under setting [3] was less than 100 nM.

Take `Cc1nc(N2CC(OC(C)(C)C)C2)sc1Oc1ccc(-n2ncn(Cc3c(F)cccc3F)c2=O)cc1` [Example 456, 2-(4-((2-(3-(tert-butoxy)azetidin-1-yl)-4-methylthiazol-5-yl)oxy)phenyl)-4-(2,6-difluorobenzyl)-2,4-dihydro-3H-1,2,4-triazol-3-one]: the IC50 under setting [2] was less than 100 nM.

In the case of `CC1(C#N)CCN(c2cc(Oc3ccc(-n4ncn(Cc5c(F)cccc5F)c4=O)cc3F)c(Cl)cn2)C1` (stereo not shown) [Example 393, 1-(5-chloro-4-(4-(4-(2,6-difluorobenzyl)-5-oxo-4,5-dihydro-1H-1,2,4-triazol-1-yl)-2-fluorophenoxy)pyridin-2-yl)-3-methylpyrrolidine-3-carbonitrile], under setting [2], the IC50 was less than 100 nM.

In the case of `Cc1nc(C(N)=O)sc1Oc1ncc(-n2nc3n(c2=O)[C@@H](c2ccccc2)CC3)cc1Cl` (single isomer, unassigned) [Example 641], the IC50 under setting [4] was 1000 to 10000 nM.

As to `Nc1cc(Oc2ccc(-n3ncn(Cc4c(F)cccc4F)c3=O)cc2F)c(F)cn1` [Example 223, 2-(4-((2-amino-5-fluoropyridin-4-yl)oxy)-3-fluorophenyl)-4-(2,6-difluorobenzyl)-2,4-dihydro-3H-1,2,4-triazol-3-one], the IC50 under setting [2] was 100 to 1000 nM.

Regarding `Cc1nn(Cc2ccc(-n3ncn(Cc4c(F)cccc4F)c3=O)cc2)c(C)c1C` [Example 189, 4-(2,6-difluorobenzyl)-2-(4-((3,4,5-trimethyl-1H-pyrazol-1-yl)methyl)phenyl)-2,4-dihydro-3H-1,2,4-triazol-3-one], under setting [1], the IC50 was less than 100 nM.

Regarding `O=c1n(Cc2c(F)cccc2F)cnn1-c1ccc(Oc2ccnc(NCC3CCOC3)c2)cc1` (stereo not shown) [Example 259, 4-(2,6-difluorobenzyl)-2-(4-((2-(((tetrahydrofuran-3-yl)methyl)amino)pyridin-4-yl)oxy)phenyl)-2,4-dihydro-3H-1,2,4-triazol-3-one], under setting [2], the IC50 lay in the range of 100 to 1000 nM.

Take `C[C@H]1C[C@@H](O)CN1c1cc(Oc2ccc(-n3ncn(Cc4c(F)cccc4F)c3=O)cc2)ccn1` [Example 289, 4-(2,6-difluorobenzyl)-2-(4-((2-((2S,4R)-4-hydroxy-2-methylpyrrolidin-1-yl)pyridin-4-yl)oxy)phenyl)-2,4-dihydro-3H-1,2,4-triazol-3-one]: the IC50 under setting [2] was less than 100 nM.

In the case of `Nc1cccc(F)c1Oc1ccc(-n2ncn(Cc3c(F)cccc3F)c2=O)cc1` [Example 442, 2-(4-(2-amino-6-fluorophenoxy)phenyl)-4-(2,6-difluorobenzyl)-2,4-dihydro-3H-1,2,4-triazol-3-one], under setting [2], the IC50 was less than 100 nM.

Consider `Cc1nc(C(N)=O)sc1OC1CCC(n2nc3n(c2=O)[C@H](c2ccccc2)CC3)CC1` (stereo partly drawn) [Example 635, (S)-4-methyl-5-((4-(3-oxo-5-phenyl-6,7-dihydro-3H-pyrrolo[2,1-c][1,2,4]triazol-2(5H)-yl)cyclohexyl)oxy)thiazole-2-carboxamide], for which the IC50 under setting [4] was 1000 to 10000 nM.

Consider `Cc1nc(NC(=O)OC(C)(C)C)sc1S(=O)(=O)c1ccc(-n2ncn(Cc3ccccc3)c2=O)cc1` [Example 629, tert-butyl (5-((4-(4-benzyl-5-oxo-4,5-dihydro-1H-1,2,4-triazol-1-yl)phenyl)sulfonyl)-4-methylthiazol-2-yl)carbamate], for which, under setting [1], the IC50 fell in the range of 100 to 1000 nM.

On to `Cc1ncsc1Oc1ccc(-n2ncn(Cc3c(F)cccc3F)c2=O)cc1Cl` [Example 5, 2-(3-chloro-4-((4-methylthiazol-5-yl)oxy)phenyl)-4-(2,6-difluorobenzyl)-2,4-dihydro-3H-1,2,4-triazol-3-one], for which, under setting [3], the IC50 was less than 100 nM.

On to `CC1CN(c2cc(Oc3ccc(-n4ncn(Cc5c(F)cccc5F)c4=O)cc3)ccn2)CC1C#N` (stereo not shown) [Example 281, 1-(4-(4-(4-(2,6-difluorobenzyl)-5-oxo-4,5-dihydro-1H-1,2,4-triazol-1-yl)phenoxy)pyridin-2-yl)-4-methylpyrrolidine-3-carbonitrile], for which the IC50 under setting [2] was less than 100 nM.
